Results: patent US5478864A, “Method for disinfection using a 1,n-bis(N^5 -trifluoromethyl-phenyl-N^1 -biguanido)-alkane” (Mitsubishi Materials Corp., priority 1991, dated 1995)
Converted amounts (≈) assume the structure as drawn. Like-named read-outs stand apart in the source and are kept apart here.

Columns and labels:
[1] = tested on: Achromobacter xylosoxidans RIMD 0101001; test: minimum growth inhibition concentration, agar dilution; type: cell-based; conditions: RIMD0101001, Mueller-Hinton agar, digluconate
Protocol: (§1) Germicidal activity of the compound prepared in Example 1 (Compound I) was evaluated by the minimum growth inhibition concentration method (based on the standard method stipulated by Japan Society of Chemotherapy) and the phenol coefficient method.
(§2) A portion of the digluconate salt of the compound of Example 1 was dissolved in water and the solution was heated to dryness on a water bath. The dried salt was dissolved in acetic acid (potentiometric titration grade) and the concentration thereof was determined by potentiometric titration using a perchloric acid solution. The gluconate acid salt solution, whose concentration was thus determined, was diluted to predetermined concentrations with sterilized water. Each 1 ml of the solution of each concentration was placed in a Petri dish, 9 ml of Mueller-Hinton agar (supplied by Difco) was added thereto and well mixed. Thus sensitivity test media were prepared. The concentrations of the compound were 200 μg/ml and 2^n times wherein (n=-8 to 2). Separately, microorganism strains indicated in Table 1 were subcultured in propagation media (using Mueller-Hinton broth supplied by Difco) at 37° C. for 24 hours. The microorganism concentration was adjusted to 10^6 /ml. The thus obtained cultures were respectively inoculated on a series of sensitivity measuring culture media using an inoculation rod. […] The results are shown in Table 1 together with the result on chlorhexidine as a control.
(§3) Disinfecting effect of the above-prepared compounds was tested by measurement of minimum growth inhibition concentration and by the test for immediate effect in the same manner as in Example 3.

[2] = tested on: Alcaligenes faecalis IPO 13111; test: as above; type: cell-based; conditions: IPO13111, Mueller-Hinton agar, digluconate
Protocol: as §1, §2, §3

Escherichia coli IID 861 [3] = test: as above; type: cell-based
Protocol: as §1, §2, §3

[4] = tested on: Escherichia coli NIHJ JC-2; test: as above; type: cell-based
Protocol: as §1, §2, §3

[5] = tested on: Flavobacterium meningosepticum RIMD 0614002; test: as above; type: cell-based; conditions: Elizabethkingia meningoseptica, RIMD0614002; Mueller-Hinton agar; digluconate
Protocol: as §1, §2, §3

[6] = tested on: Klebsiella pneumoniae IID 865; test: as above; type: cell-based
Protocol: as §1, §2, §3

Proteus vulgaris IID 874 = test: as above; type: cell-based; conditions: IID874, Mueller-Hinton agar, digluconate
Protocol: as §1, §2, §3

[7] = tested on: Pseudomonas aerugimosa (clinically collected); test: as above; type: cell-based; conditions: Mueller-Hinton agar, digluconate
Protocol: as §1, §2, §3

[8] = tested on: Pseudomonas cepacia (collected Chiba Univ.); test: as above; type: cell-based; conditions: Burkholderia cepacia, Mueller-Hinton agar, digluconate
Protocol: as §1, §2, §3

[9] = tested on: Staphylococcus epidermis IID 866; test: as above; type: cell-based
Protocol: as §1, §2, §3

Escherichia coli IID 951 = test: as above; type: cell-based
Protocol: as §1, §2
(§4) Compounds of formula I, wherein the trifluoromethyl group is located at the p-position and n is 2, 3, 5, 8 and 11, were prepared starting from ethylene diamine dichloride, 1,3-propane diamine dichloride, 1,5-pentane diamine dichloride, 1,8-octane diamine dichloride or 1,11-undecane diamine dichloride, sodium dicyanamide and 4-trifluoromethyl aniline hydrochloride in accordance with the procedures as described above and minimum growth inhibition concentration (MIC) was determined in the same manner as above.
as §3
(§5) Compounds of formula I, wherein the trifluoromethyl group is located at the m-position and n is 2, 3, 5 and 8, 11 were prepared starting from ethylene diamine dihydrochloride, 1,3-propane diamine dihydrochloride, 1,5-pentane diamine dihydrochloride, 1,8-octane diamine dihydrochloride or 1,11-undecane diamine dihydrochloride, sodium dicyanamide and 3-trifluoromethylaniline hydrochloride in accordance with the procedures of Example 4 and germicidal activity thereof were determined in the same manner.

[10] = tested on: Pseudomonas aeruginosa IID 1042; test: as above; type: cell-based; conditions: Pseudomonas aeruginosa, IID1042, Mueller-Hinton agar, read-out: MIC
Protocol: as §1, §2, §4, §3, §5

[11] = tested on: Serratia marcescens IID 602; test: as above; type: cell-based
Protocol: as §1, §2, §4, §3, §5

[12] = tested on: Staphylococcus aureus FDA 209-P; test: as above; type: cell-based; conditions: FDA209, Mueller-Hinton agar
Protocol: as §1, §2, §4, §3, §5

[13] = tested on: Staphylococcus aureus (clin'ly col'ted MRSA); test: minimum growth inhibition concentration, agar dilution (first MRSA line); type: cell-based
Protocol: as §1, §2, §3

[14] = tested on: Staphylococcus aureus (clin'ly col'ted MRSA); test: minimum growth inhibition concentration, agar dilution (second MRSA line); type: cell-based; conditions: Mueller-Hinton agar, digluconate, clinically collected MRSA
Protocol: as §1, §2, §3

Escherichia coli IID 861 [15] = test: test for immediate effect (phenol coefficient method); type: cell-based; conditions: of three runs, conc. 0.001%, 20° C.
Protocol: (§6) Immediate effect of this compound was evaluated in accordance with the phenol coefficient method described in "Directions for Hygienic Tests" compiled by the Ministry of Health and Welfare of Japan. The method is as follows. (1) Culture medium Each 10 ml of the bouillon described below was taken into test tubes and they were sterilized with high pressure steam at 120° C. for 20 minutes. (2) Test method Diluted solutions of a series of concentrations of the sample compound were prepared for each of microorganisms listed in Table 2. Each 10 ml of the solutions was put into an appraisal test tube and the test tubes were placed in a thermostat bath kept at 20° C. Each microorganism was subcultured in the above described bouillon medium for testing disinfectants for three generations (37° C. for 48 hours). Each 1 ml of each culture was placed in each of the above-described series of appraisal test tubes and well mixed. After 2.5, 5, 10 and 15 minutes, 0.1 ml of the content of each appraisal test tube was taken and inoculated onto each portion of the bouillon medium for testing disinfectants. […] Each test was carried out three times. Immediate effect of disinfectants was compared by number of test runs in which microorganism growth was observed. […]

[16] = tested on: Pseudomonas aeruginosa IID 1042; test: as above; type: cell-based; conditions: of three runs, conc. 0.03%, 20° C.
Protocol: as §6

[17] = tested on: Staphylococcus aureus FDA 209-P; test: as above; type: cell-based; conditions: of three runs, conc. 0.0005%, 20° C.
Protocol: as §6

[18] = tested on: some Gram-negative bacteria, especially Pyocyaneus bacilli; conditions: cited from earlier work
[19] = administered to mucous membranes in a conventionally employed concentration; cited from earlier work
[20] = gluconate salt; cited from earlier work
general bacteria = conditions: cited from earlier work
other microorganisms = test: minimum growth inhibition concentration, other microorganisms of Table 1; type: cell-based; conditions: against other microorganisms
Protocol: as §1
A portion of the digluconate salt of the compound of Example 1 was dissolved in water and the solution was heated to dryness on a water bath. The dried salt was dissolved in acetic acid (potentiometric titration grade) and the concentration thereof was determined by potentiometric titration using a perchloric acid solution. The gluconate acid salt solution, whose concentration was thus determined, was diluted to predetermined concentrations with sterilized water. Each 1 ml of the solution of each concentration was placed in a Petri dish, 9 ml of Mueller-Hinton agar (supplied by Difco) was added thereto and well mixed. Thus sensitivity test media were prepared. The concentrations of the compound were 200 μg/ml and 2^n times wherein (n=-8 to 2). Separately, microorganism strains indicated in Table 1 were subcultured in propagation media (using Mueller-Hinton broth supplied by Difco) at 37° C. for 24 hours. The microorganism concentration was adjusted to 10^6 /ml. The thus obtained cultures were respectively inoculated on a series of sensitivity measuring culture media using an inoculation rod. […]

Compound | MIC [1] [µg/mL] | MIC [2] [µg/mL] | MIC [5] [µg/mL] | MIC (Proteus vulgaris IID 874) [µg/mL] | MIC [7] [µg/mL] | MIC [8] [µg/mL] | MIC [10] [µg/mL] | MIC [12] [µg/mL] | MIC [14] [µg/mL] | number of test runs in which microorganism growth was observed (Escherichia coli IID 861 [15]; contact time 2.5 min) | number of test runs in which microorganism growth was observed (Escherichia coli IID 861 [15]; contact time 5.0 min) | number of test runs in which microorganism growth was observed (Escherichia coli IID 861 [15]; contact time 10.0 min) | number of test runs in which microorganism growth was observed (Escherichia coli IID 861 [15]; contact time 15.0 min) | number of test runs in which microorganism growth was observed ([16]; contact time 2.5 min) | number of test runs in which microorganism growth was observed ([16]; contact time 5.0 min) | number of test runs in which microorganism growth was observed ([16]; contact time 10.0 min) | number of test runs in which microorganism growth was observed ([16]; contact time 15.0 min) | number of test runs in which microorganism growth was observed ([17]; contact time 2.5 min) | number of test runs in which microorganism growth was observed ([17]; contact time 5.0 min) | number of test runs in which microorganism growth was observed ([17]; contact time 10.0 min) | other results
[H]/N=C(\N/C(=N/[H])NCCCCCCNC(=N)NC(=N)Nc1ccc(Cl)cc1)Nc1ccc(Cl)cc1 [CHXD, chlorhexidine, reference compound] | 25 (≈ 49.5 µM) | 50 (≈ 98.9 µM) | 200 (≈ 396 µM) | 200 (≈ 396 µM) | 100 (≈ 198 µM) | 100 (≈ 198 µM) | 100 (≈ 198 µM) | 0.78 (≈ 1.54 µM) | 3.13 (≈ 6.19 µM) | 3 | 3 | 3 | 3 | 2 | 1 | 0 | 0 | 3 | 1 | 0 | MIC (Escherichia coli IID 861 [3]; IID861): 1.56 µg/mL (≈ 3.09 µM); MIC ([4]; NIHJJC2): 1.56 µg/mL (≈ 3.09 µM); MIC ([6]; IID865): 6.25 µg/mL (≈ 12.4 µM); MIC ([9]; IID866): 1.56 µg/mL (≈ 3.09 µM); MIC (Escherichia coli IID 951; IID951): 1.56 µg/mL (≈ 3.09 µM); MIC ([11]; IID602): 6.25 µg/mL (≈ 12.4 µM); MIC ([13]; MRSA): 6.25 µg/mL (≈ 12.4 µM); number of test runs in which microorganism growth was observed ([17]; contact time 15.0 min): 0; effect against some Gram-negative bacteria, especially Pyocyaneus bacilli [18]: less effective; shock symptoms [19]: sometimes causes shock symptoms; solubility in water [20]: high solubility in water; disinfecting effect (general bacteria): exhibits disinfecting effect on a wide range of general bacteria
N=C(NCCCCCCNC(=N)NC(=N)Nc1ccc(C(F)(F)F)cc1)NC(=N)Nc1ccc(C(F)(F)F)cc1 [Ex. 1, 1,6-bis(N^5-p-trifluoromethylphenyl-N^1-biguanido)-hexane] | 50 (≈ 87.3 µM) | 6.25 (≈ 10.9 µM) | 200 (≈ 349 µM) | 25 (≈ 43.7 µM) | 12.5 (≈ 21.8 µM) | 50 (≈ 87.3 µM) | 12.5 (≈ 21.8 µM) | 1.56 (≈ 2.72 µM) | 1.56 (≈ 2.72 µM) | 3 | 3 | 2 | 1 | 0 | 0 | 0 | 0 | 0 | 0 | 0 | MIC (Escherichia coli IID 861 [3]; IID861, Mueller-Hinton agar, digluconate, IID 861, read-out: MIC): 3.13 µg/mL (≈ 5.47 µM); MIC ([4]; NIHJJC2, Mueller-Hinton agar, digluconate, NIHJ JC-2, read-out: MIC): 3.13 µg/mL (≈ 5.47 µM); MIC ([6]; IID865, Mueller-Hinton agar, digluconate, read-out: MIC): 3.13 µg/mL (≈ 5.47 µM); MIC ([9]; IID866, Mueller-Hinton agar, digluconate, IID 866, read-out: MIC): 1.56 µg/mL (≈ 2.72 µM); MIC (Escherichia coli IID 951; IID951, Mueller-Hinton agar, IID 951, read-out: MIC): 3.13 µg/mL (≈ 5.47 µM); MIC ([11]; IID602, Mueller-Hinton agar, IID 602, read-out: MIC): 6.25 µg/mL (≈ 10.9 µM); MIC ([13]; Mueller-Hinton agar, digluconate, clinically collected MRSA, first line, read-out: MIC): 6.25 µg/mL (≈ 10.9 µM); number of test runs in which microorganism growth was observed ([17]; contact time 15.0 min): 0; germicidal effect compared with chlorhexidine (other microorganisms): effective at the same level as chlorhexidine
